According to patent US6737383B1, “Herbicidal oxadiazolidines” (priority 1999, dated 2004):

Experiments:
pigweed = test: Test B pre/postemergence pigweed; format: in vivo, Amaranthus retroflexus
In short: (§1)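 Herbicidal effect was estimated by eye on a ten-point control scale after plants spent twelve to sixteen days in a greenhouse following soil or foliar treatment. Foliar sprays targeted plants at one to four leaves; all doses were formulated in a non-phytotoxic solvent with surfactant.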

duck salad = test: Test B flood test duck salad; format: in vivo, Heteranthera limosa
In short: (§2)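 Plants were grown to the 2-leaf stage before treatment with test chemical, then held in a greenhouse for twelve to sixteen days. Injury was visually rated against untreated controls on a 0–10 scale, where 0 is no effect and 10 is complete control.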

corn = test: Test B pre/postemergence corn; format: in vivo, Zea mays
In short: as §1

crabgrass = test: Test B pre/postemergence crabgrass; format: in vivo, Digitaria sanguinalis
In short: as §1

bedstraw = test: Test B pre/postemergence bedstraw; format: in vivo, Galium aparine; details: Preemergence; for Bedstraw plant response rating: scale 0 to 10, 0 is no effect, 10 is complete control
In short: as §1

rape = test: Test B pre/postemergence rape; format: in vivo, Brassica napus
In short: as §1

giant foxtail = test: Test B pre/postemergence giant foxtail; format: in vivo, Setaria faberii
In short: as §1

purple nutsedge = test: Test B pre/postemergence purple nutsedge; format: in vivo, Cyperus rotundus
In short: as §1

cocklebur = test: Test B pre/postemergence cocklebur; format: in vivo, Xanthium strumarium
In short: as §1

soybean = test: Test B pre/postemergence soybean; format: in vivo, Glycine max
In short: as §1

blackgrass = test: Test B pre/postemergence blackgrass; format: in vivo, Alopecurus myosuroides
In short: as §1

wheat = test: Test B pre/postemergence wheat; format: in vivo, Triticum aestivum
In short: as §1

rice = test: Test B flood test rice; format: in vivo, Oryza sativa
In short: as §2

sugar beet = test: Test B pre/postemergence sugar beet; format: in vivo, Beta vulgaris
In short: as §1

wild oat = test: Test B pre/postemergence wild oat; format: in vivo, Avena fatua
In short: as §1

morningglory = test: Test B pre/postemergence morningglory; format: in vivo, Ipomoea hederacea
In short: as §1

velvetleaf = test: Test B pre/postemergence velvetleaf; format: in vivo, Abutilon theophrasti
In short: as §1

smallflower flatsedge = test: Test B flood test smallflower flatsedge; format: in vivo, Cyperus difformis
In short: as §2

bamyardgrass = test: Test B flood test barnyardgrass; format: in vivo, Echinochloa crus-galli
In short: as §2

surinam grass = test: Test B pre/postemergence surinam grass; format: in vivo, Brachiaria decumbens
In short: as §1

[1] = Postemergence, Rate 62 g/ha, scale of 0 to 10, 0 is no effect, 10 is complete control
[2] = Postemergence, Rate 125 g/ha, scale 0 to 10, 0 is no effect, 10 is complete control
[3] = Postemergence, Rate 500 g/ha, scale 0 to 10, 0 is no effect, 10 is complete control
[4] = Preemergence, Rate 62 g/ha, scale of 0 to 10 where 0 is no effect and 10 is complete control
[5] = Preemergence, Rate 125 g/ha, scale 0 to 10, 0 is no effect, 10 is complete control
[6] = Preemergence, Rate 500 g/ha, scale of 0 to 10 where 0 is no effect and 10 is complete control
[7] = Rate 62 g/ha, flood test species, Pre-emergence, visual evaluation after twelve to sixteen days
[8] = Rate 125 g/ha, under heading Pre-emergence, flood test species, visual evaluation after twelve to sixteen days
[9] = Rate 250 g/ha, Pre-emergence (flood test species), scale 0 to 10, 0 is no effect, 10 is complete control
[10] = Rate 500 g/ha, Pre-emergence section of Table B, 0 to 10 scale (0 no effect, 10 complete control)
[11] = Postemergence, Rate 250 g/ha, scale 0 to 10
[12] = Preemergence, Rate 250 g/ha, scale 0 to 10, 0 is no effect, 10 is complete control

## CC(C)N(C(=O)n1oc(=O)n(CC2CC2)c1=O)c1ccc(F)cc1F [Compound 509]
pigweed; [1]
  Redroot pigweed plant response rating: 0
pigweed; [2]
  Redroot pigweed plant response rating: 0
pigweed; [3]
  Plant response rating, Redroot pigweed: 5
pigweed; [4]
  Plant response rating, Redroot pigweed: 0
pigweed; [5]
  Redroot pigweed plant response rating: 0
pigweed; [6]
  Redroot pigweed plant response rating: 10
Duck salad; [7]
  Plant response rating, Ducksalad (0 to 10 scale, 0 is no effect, 10 is complete control): 0
Duck salad; [8]
  Ducksalad plant response rating (0 to 10 scale, 0 is no effect, 10 is complete control): 0
Duck salad; [9]
  Ducksalad plant response rating: 0
Duck salad; [10]
  Ducksalad plant response rating: 0
corn; [1]
  Corn plant response rating: 0
corn; [2]
  Corn plant response rating: 0
corn; [11]
  Corn plant response rating: 0
corn; [3]
  Plant response rating, Corn: 1
corn; [4]
  Plant response rating, Corn: 0
corn; [5]
  Corn plant response rating: 0
corn; [6]
  Corn plant response rating: 6
crabgrass; [1]
  Crabgrass plant response rating: 3
crabgrass; [2]
  Crabgrass plant response rating: 9
crabgrass; [11]
  Crabgrass plant response rating: 9
crabgrass; [3]
  Plant response rating, Crabgrass: 9
crabgrass; [4]
  Plant response rating, Crabgrass: 3
crabgrass; [5]
  Crabgrass plant response rating: 7
crabgrass; [6]
  Crabgrass plant response rating: 10
bedstraw; Rate 62 g/ha, scale of 0 to 10 where 0 is no effect and 10 is complete control
  Plant response rating, Bedstraw: 0
bedstraw; Rate 125 g/ha
  Bedstraw plant response rating: 0
bedstraw; Rate 250 g/ha
  Bedstraw plant response rating: 10
bedstraw; Rate 500 g/ha
  Bedstraw plant response rating: 9
rape; [1]
  Rape plant response rating: 0
rape; [2]
  Rape plant response rating: 0
rape; [3]
  Plant response rating, Rape: 4
rape; [4]
  Plant response rating, Rape: 0
rape; [5]
  Rape plant response rating: 0
rape; [6]
  Rape plant response rating: 10
Giant foxtail; [1]
  Giant foxtail plant response rating: 3
Giant foxtail; [2]
  Giant foxtail plant response rating: 7
Giant foxtail; [3]
  Plant response rating, Giant foxtail: 8
Giant foxtail; [4]
  Plant response rating, Giant foxtail: 9
Giant foxtail; [5]
  Giant foxtail plant response rating: 9
Giant foxtail; [6]
  Giant foxtail plant response rating: 10
Purple nutsedge; [1]
  Nutsedge plant response rating: 0
Purple nutsedge; [2]
  Nutsedge plant response rating: 0
Purple nutsedge; [4]
  Plant response rating, Nutsedge: 0
Purple nutsedge; [5]
  Nutsedge plant response rating: 0
Purple nutsedge; [6]
  Nutsedge plant response rating: 0
cocklebur; [1]
  Cocklebur plant response rating: 0
cocklebur; [2]
  Cocklebur plant response rating: 0
cocklebur; [11]
  Cocklebur plant response rating: 0
cocklebur; [3]
  Plant response rating, Cocklebur: 4
cocklebur; [4]
  Plant response rating, Cocklebur: 0
cocklebur; [5]
  Cocklebur plant response rating: 0
cocklebur; [12]
  Cocklebur plant response rating: 0
cocklebur; [6]
  Cocklebur plant response rating: 5
soybean; [1]
  Soybean plant response rating: 1
soybean; [2]
  Soybean plant response rating: 3
soybean; [3]
  Plant response rating, Soybean: 5
soybean; [4]
  Plant response rating, Soybean: 0
soybean; [5]
  Soybean plant response rating: 0
blackgrass; [1]
  Blackgrass plant response rating: 2
blackgrass; [2]
  Blackgrass plant response rating: 5
blackgrass; [11]
  Blackgrass plant response rating: 6
blackgrass; [3]
  Plant response rating, Blackgrass: 9
blackgrass; [4]
  Plant response rating, Blackgrass: 5
blackgrass; [5]
  Blackgrass plant response rating: 7
blackgrass; [12]
  Blackgrass plant response rating: 8
blackgrass; [6]
  Blackgrass plant response rating: 10
wheat; [1]
  Wheat plant response rating: 0
wheat; [2]
  Wheat plant response rating: 0
wheat; [3]
  Plant response rating, Wheat: 2
wheat; [4]
  Plant response rating, Wheat: 0
wheat; [5]
  Wheat plant response rating: 0
wheat; [6]
  Wheat plant response rating: 7
rice; [7]
  Plant response rating, Rice (0 to 10 scale, 0 is no effect, 10 is complete control): 0
rice; [8]
  Rice plant response rating (0 to 10 scale, 0 is no effect, 10 is complete control): 0
rice; [9]
  Rice plant response rating: 0
rice; [10]
  Rice plant response rating: 0
Sugar beet; [1]
  Sugarbeets plant response rating: 0
Sugar beet; [2]
  Sugarbeets plant response rating: 0
Sugar beet; [3]
  Plant response rating, Sugarbeets: 7
Sugar beet; [4]
  Plant response rating, Sugarbeets: 0
Sugar beet; [5]
  Sugarbeets plant response rating: 4
Sugar beet; [6]
  Sugarbeets plant response rating: 7
Wild oat; [1]
  Wild oats plant response rating: 0
Wild oat; [2]
  Wild oats plant response rating: 0
Wild oat; [3]
  Plant response rating, Wild oats: 8
Wild oat; [4]
  Plant response rating, Wild oats: 0
Wild oat; [5]
  Wild oats plant response rating: 2
Wild oat; [6]
  Wild oats plant response rating: 9
morningglory; [3]
  Plant response rating, Morningglory: 5
morningglory; [4]
  Plant response rating, Morningglory: 0
morningglory; [5]
  Morningglory plant response rating: 0
morningglory; [6]
  Morningglory plant response rating: 3
velvetleaf; [1]
  Velvetleaf plant response rating: 2
velvetleaf; [2]
  Velvetleaf plant response rating: 4
velvetleaf; [3]
  Plant response rating, Velvetleaf: 7
velvetleaf; [4]
  Plant response rating, Velvetleaf: 3
velvetleaf; [5]
  Velvetleaf plant response rating: 6
velvetleaf; [6]
  Velvetleaf plant response rating: 8
Smallflower flatsedge; [7]
  Plant response rating, S. Flatsedge (0 to 10 scale, 0 is no effect, 10 is complete control): 0
Smallflower flatsedge; [8]
  S. Flatsedge plant response rating (0 to 10 scale, 0 is no effect, 10 is complete control): 0
Smallflower flatsedge; [9]
  S. Flatsedge plant response rating: 0
Smallflower flatsedge; [10]
  S. Flatsedge plant response rating: 0
bamyardgrass; [7]
  Plant response rating, Barnyardgrass (0 to 10 scale, 0 is no effect, 10 is complete control): 0
bamyardgrass; [8]
  Barnyardgrass plant response rating (0 to 10 scale, 0 is no effect, 10 is complete control): 0
bamyardgrass; [9]
  Barnyardgrass plant response rating: 0
bamyardgrass; [10]
  Barnyardgrass plant response rating: 0
Surinam grass; [1]
  B. signalgrass plant response rating: 0
Surinam grass; [2]
  B. signalgrass plant response rating: 0
Surinam grass; Postemergence, Rate 250 g/ha, scale 0 to 10, 0 no effect, 10 complete control
  B. signalgrass plant response rating: 2
Surinam grass; [3]
  Plant response rating, B. signalgrass: 7
Surinam grass; [4]
  Plant response rating, B. signalgrass: 2
Surinam grass; [5]
  B. signalgrass plant response rating: 3
Surinam grass; [12]
  B. signalgrass plant response rating: 8
Surinam grass; Preemergence, Rate 500 g/ha, scale 0 to 10, 0 is no effect, 10 is complete control
  B. signalgrass plant response rating: 9
